Residue numbers refer to the chain shown, from its start.
Legend:
[1] = target: T1, CHD1aa270-443 (Homo sapiens, UniProt O14646); assay: Isothermal titration calorimetry (ITC) of peptides titrated to CHD1; assay type: binding; details: FIG. 2a
T1 construct: titration of LSD1aa104-127 K114me0, 1, 2, and 3 peptides to CHD1aa270-443; made in house; E. coli likely, inferred from the pET15b vector
T1 sequence (O14646 270-443): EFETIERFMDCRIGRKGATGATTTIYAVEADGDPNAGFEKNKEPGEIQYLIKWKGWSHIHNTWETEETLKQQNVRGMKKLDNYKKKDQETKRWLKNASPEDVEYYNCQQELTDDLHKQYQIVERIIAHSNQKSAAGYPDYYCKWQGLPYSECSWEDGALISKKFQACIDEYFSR
Experimental: ITC experiments were performed at 25° C. with a MicroCal VP-ITC microcalorimeter (GE Healthcare). Experiments were performed by injecting 12 μl of peptide (1.5 mM) into the sample cell containing 100 μM CHD1 in 20 mM BTP pH 8, 75 mM NaCl. A total of 24 injections were performed with a spacing of 240 s and a reference power of […]. Automated baseline assignment and peak integration were performed with NITPIC version 1.0.1.^26. Isotherms were plotted, with a single-site binding model, using SEDPHAT version 10.58d^26. Isotherms were subsequently validated by one dimensional error surface projections in SEDFIT^27.

[2] = target: T2, CHD1 double chromodomain (GST-CHD1 Chromo 1/2) (Homo sapiens, UniProt O14646); assay: Protein profiling on protein-domain microarrays with LSD1 peptides; assay type: binding; details: GST-fusion proteins
T2 sequence (O14646 268-443 limits assumed): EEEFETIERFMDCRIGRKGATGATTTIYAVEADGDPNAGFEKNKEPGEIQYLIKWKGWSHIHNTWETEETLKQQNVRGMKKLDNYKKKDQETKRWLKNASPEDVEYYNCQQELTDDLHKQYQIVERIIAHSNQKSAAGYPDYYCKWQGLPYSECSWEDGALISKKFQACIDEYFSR
Experimental: To identify potential LSD1 K114me2 methyl-lysine reader proteins, protein profiling was performed on protein-domain microarrays using un- and dimethylated LSD1 peptides LSD1aa104-127 and LSD1aa104-127 K114me2, respectively (see also ref.^14). In this profiling assay, several GST-fusion proteins including CHD1 fused to GST were used. Other GST-fusions that were used were e.g. PhD-domain proteins (BPTF, ING2 or PHF2), BROMO-domain proteins (GCN5, TAF1-D1 or TAF1-D2), or BRCT-proteins (BRCA1, 53BP1 or Crb2).

[3] = target: T3, CHD1 D425A (Homo sapiens, UniProt O14646, D425A); assay: ITC with CHD1 D425A mutant; assay type: binding; details: data not shown
T3 construct: titration of LSD1aa104-127 K114me0, 1, 2, and 3 peptides to CHD1aa270-443; made in house; E. coli likely, inferred from the pET15b vector of the wild-type fragment
T3 sequence (O14646 270-443 D425A): T1 sequence (O14646 270-443) with D156A
From the text: Amino acid residues 110-116 of the LSD1 peptide were modelled according to the electron density (FIG. 2c). […] This interaction involves residues Y295, W322, W325 from chromodomain 1 and D408 and D425 from chromodomain 2 (FIG. 2b and FIG. 5a). The methylammonium group of LSD1 K114 and side chains of W322 and W325 of CHD1 form cation-π interactions. […] It was therefore hypothesized that the R113-D425 interaction may be a discriminating feature of CHD1 binding either LSD1 K114me2 or H3K4me3 peptide and that the corresponding surface could be exploited for the design of inhibitors specifically interfering with LSD1 K114me2 but not H3K4me3 interaction (see FIG. 5c). […] Next, it was tested whether in vivo the interaction of CHD1 with LSD1 depends on LSD1 methylation. In the presence of G9A, endogenous CHD1 only coimmunoprecipitated with methylated Flag-LSD1, but not with Flag-LSD1 K114A (FIG. 2d). To investigate whether CHD1 and LSD1 K114me2 are present in the same protein complex, LNCaP cell extracts were subjected to sucrose gradient centrifugation. […] Furthermore, endogenously expressed CHD1 and LSD1 K114me2 coimmunoprecipitated with G9A from LNCaP cell extracts (FIG. 2f). Together, these observations identify CHD1 as a LSD1 K114me2 reader.
ITC experiments were performed at 25° C. with a MicroCal VP-ITC microcalorimeter (GE Healthcare). […]

[4] = tested on: LNCaP cells; assay: Chromatin immunoprecipitation (ChIP) at AREs of TMPRSS2 and KLK3 enhancers; assay type: cell-based, human; details: for chromatin occupancy of G9A: presence or absence of DHT and Bix-01294
Experimental: ChIP experiments were performed essentially as previously described^10. LNCaP and LAPC4 cells were cultured for 210 min in the absence or presence of 1×10^-7 M DHT as indicated. Three days before harvesting, cells were transfected with siRNA against LSD110, G9A20, or CHD121 that were previously described and validated using Dharmafect2 (Thermo Scientific) following the manufacturer's instructions. Immunoprecipitation was performed with specific antibodies (α-AR (N-20), #sc-816, lot A0207, Santa Cruz), α-LSD1 (#20752, Schuele Laboratory), α-LSD1 K114me2 (#4871, Schuele Laboratory), α-CHD1 (#A301-218A, lot A301-218A-1, Bethyl Laboratories), α-G9A (#ab40542, lot GR170862-1, Abcam) on protein A-Sepharose 4B (GE-Healthcare). For PCR, 2 μl out of 70 μl DNA extract were used. Primer sequences were as follows: TMPRSS2 enhancer (−13782/−13866) 5′-[…]-3′ (SEQ ID NO:1) and 5′-[…]-3′ (SEQ ID NO:2); KLK3 enhancer (−3980/−4048) 5′-[…]-3′ (SEQ ID NO:3) and 5′-[…]-3′ (SEQ ID NO:4); control (chr6:151953789-151953927) 5′-[…]-3′ (SEQ ID NO:5) and 5′-[…]-3′ (SEQ ID NO:6).
LNCaP cells were cultured and transfected as described^10.

[5] = tested on: LAPC4 cells; assay: Chromosome conformation capture (3C), TMPRSS2 enhancer-breakpoint loop; assay type: cell-based; details: DHT, Bix-01294, FIG. 4b
Experimental: LNCaP cells were grown for 72 hours in medium supplemented with 10% double-stripped FCS, treated for 210 min with or without DHT 10^−7 M, washed in PBS, and trypsinized 2 min at 37° C. After washing, cells were resuspended in PBS, filtered through a 40 μm cell strainer and collected in an ice cold 2% formaldehyde solution. After 15 min incubation at 4° C., fixation was stopped by adding glycine and cells were pelleted. After washing, cells were resuspended in nuclear isolation buffer (10 mM HEPES-KOH pH 7.9, 1.5 mM MgCl2, 10 mM KCl, 0.5 mM DTT, Complete protease inhibitor cocktail, Roche), allowed to swell on ice for 10 min, vortexed for 10 seconds at low speed, and pelleted. Isolated nuclei were resuspended in NEB restriction buffer, SDS was added to a final concentration of 0.5%, and nuclei were incubated for 1 h at 37° C. while shaking. Upon addition of Triton X-100, samples were incubated for 1 h at 37° C. to sequester SDS. 50 μl of the sample were taken and used as an undigested control. 600 U restriction enzyme were added and samples were incubated overnight at 37° C. while shaking. 40 μl 20% SDS solution was added and incubated for 20 min at 65° C. to inactivate the restriction enzyme. […] Purified DNA samples were analyzed on a Roche LightCycler®480 by TaqMan-based qPCR. […] To verify Enhancer-Breakpoint PCR product, samples were analyzed on a 2% agarose gel and sequenced. […]

[6] = tested on: LNCaP cells
Experimental: LNCaP cells were grown for 72 hours in medium supplemented with 10% double-stripped FCS, treated for 210 min with or without DHT 10^−7 M, washed in PBS, and trypsinized 2 min at 37° C. After washing, cells were resuspended in PBS, filtered through a 40 μm cell strainer and collected in an ice cold 2% formaldehyde solution. After 15 min incubation at 4° C., fixation was stopped by adding glycine and cells were pelleted. After washing, cells were resuspended in nuclear isolation buffer (10 mM HEPES-KOH pH 7.9, 1.5 mM MgCl2, 10 mM KCl, 0.5 mM DTT, Complete protease inhibitor cocktail, Roche), allowed to swell on ice for 10 min, vortexed for 10 seconds at low speed, and pelleted. Isolated nuclei were resuspended in NEB restriction buffer, SDS was added to a final concentration of 0.5%, and nuclei were incubated for 1 h at 37° C. while shaking. Upon addition of Triton X-100, samples were incubated for 1 h at 37° C. to sequester SDS. 50 μl of the sample were taken and used as an undigested control. 600 U restriction enzyme were added and samples were incubated overnight at 37° C. while shaking. 40 μl 20% SDS solution was added and incubated for 20 min at 65° C. to inactivate the restriction enzyme. […] Purified DNA samples were analyzed on a Roche LightCycler®480 by TaqMan-based qPCR. […] To verify Enhancer-Breakpoint PCR product, samples were analyzed on a 2% agarose gel and sequenced.

[7] = tested on: LNCaP cells; assay: Expression of androgen-regulated genes (quantitative RT-PCR); assay type: cell-based, human; details: 1×10^−5 M Bix-01294, FIG. 3j
[8] = tested on: LAPC4 cells; assay: as above; assay type: cell-based; details: 1×10^−5 M Bix-01294, FIG. 3k
[9] = tested on: LNCaP cells; details: DHT 10^−6 M, 3 days, FIG. 4g
Experimental: (§1) LNCaP cells were cultured and transfected as described^10. […] For FISH and analysis of TMPRSS2-ERG expression (FIG. 4f,g) cells were transfected with siRNAs height and five days before harvesting; DHT 10^−6 M was added to the cells as indicated 3 days before harvesting. […] Cells were cultivated for 3 days (FIG. 4f, g) with DHT 10^−6 M as indicated.
To determine TMPRSS2-ERG fusion status in LNCaP cells, a FISH break-apart assay was performed as described previously^41. The FISH probe consists of two BAC clones spanning the centromeric and telomeric region of the ERG locus on chromosome 21q22.2: RP11-24A11 labelled with biotin-14-dCTP (red) and RP11-137J13 labelled with digoxigenin-dUTP (green). After harvesting, LNCaP cells were incubated with 0.075 M KCl at 37° C. for 15 min and fixed on slides (acetic acid/methanol 1:3). Slides were pre-treated with 2×SSC at 37° C. for 60 min, digested with 1:25 Digest-A11 III at 37° C. for 6 min and dehydrated in an ascending ethanol series. The probes were denatured at 73° C. for 5 min and subsequently co-denaturized with the cells (85° C., 4 min). Hybridization of the two probes was performed at 37° C. overnight. […] Finally slides were counterstained with DAPI and mounted and independently evaluated by two persons.

[10] = tested on: LNCaP cells; details: DHT 10^−6 M, 3 days, FIG. 4f
Experimental: Expression analysis of TMPRSS2-ERG (FIG. 4f) was done essentially as previously described. […] HPRT was used for normalization.
as §1

With “Unmethylated LSD1: unmethylated LSD1 peptide LSD1aa104-127 (TPEGRRTSRRKRAKVEYREMDESL)” the “binding to GST-CHD1 Chromo 1/2” value [1] was “did not bind” and the “interaction with CHD1 double chromodomain on microarray” value [2] was “not”.

With “H3K4me3 peptide: histone 3 peptide modified at lysine residue 4 by three methyl-groups” the “effect of D425A mutation in CHD1 on peptide binding” value [3] was “only mildly affected”.

In the case of `COc1cc2nc(N3CCCN(C)CC3)nc(NC3CCN(Cc4ccccc4)CC3)c2cc1OC` [Bix-01294], the “chromatin occupancy of G9A” value ([4]; ChIP) is reported as “not altered”, the “androgen-induced methylation of LSD1 and androgen-induced recruitment of CHD1 and AR” value ([4]; DHT, 1×10^−5 M Bix-01294, ChIP, FIG. 3g) is reported as “blocked” and the “androgen-dependent TMPRSS2 enhancer-breakpoint loop formation” value [5] is reported as “blocked this loop formation”. For the same molecule, the “androgen-dependent TMPRSS2 enhancer-breakpoint loop formation” value ([6]; DHT, Bix-01294, FIG. 4a) was “blocked this loop formation”, the “DHT-induced expression of TMPRSS2, KLK3, PRDM4, ELK4, GREB1, IGF1R, FKBP5, or EGFR” value [7] was “greatly reduced” and the “DHT-induced expression of TMPRSS2, KLK3, PRDM4, ELK4, GREB1, IGF1R, FKBP5, or EGFR” value [8] was “greatly reduced”.

For “Unmethylated H3 peptide: unmethylated histone H3 peptide”, the “binding to GST-CHD1 Chromo 1/2” value [1] was “did not bind”.

In the case of `C[C@]12CCC(=O)C[C@@H]1CC[C@@H]1[C@@H]2CC[C@]2(C)[C@@H](O)CC[C@@H]12` [DHT, dihydrotestosterone], the “chromatin occupancy of G9A” value ([4]; ChIP) is reported as “not altered”, the “LSD1 K114me2 levels and CHD1 and AR occupancy of the TMPRSS2 and KLK3 genes” value ([4]; DHT 10^−7 M, 210 min, ChIP) is reported as “elevated LSD1 K114me2 levels accompanied by increased CHD1 and AR occupancy” and the TMPRSS2 enhancer-breakpoint interactions ([6]; DHT 10^−7 M, 210 min, 3C) is reported as “enhancer-breakpoint interactions upon treatment with DHT was observed”. For the same molecule, the “ERG rearrangements by FISH” value [9] was “induced ERG rearrangements” and the TMPRSS2-ERG transcript [10] was “led to the production of TMPRSS2-ERG transcript”.

Source: patent publication US10463630B2, “Interaction of methylated LSD1 and CHD1, a compound inhibiting this interaction for use in therapy, and a screening method for such a compound” (Albert-Ludwigs-Universität Freiburg, priority 2015, dated 2019)
